Like-named read-outs stand apart in the source and are kept apart here.
Tests used:
[1] = molecular target: T1, N-terminal His-tagged TYK2 pseudokinase domain (Homo sapiens, UniProt P29597); assay: TYK2 JH2 domain SPA binding assay; settings: displacement of H3 probe (20 nM), 30 min room temperature; class symbols
T1 construct: the N-terminal His-tagged TYK2 pseudokinase domain; His (N); purchased Pharmaron
Description: TYK2 JH2 Domain Binding Assay
After incubating at room temperature for 30 min, the inhibition was calculated by the displacement of [3H] 3 binding as determined by scintillation counting. Dose-response curves were generated to determine the concentration required to inhibit H3 probe binding by […] (IC50).

[2] = test system: IL-23 induced STAT3 in HEK-Blue™ IL-23 cells; assay: IL-23 induced STAT3 QUANTI-Blue reporter assay in HEK-Blue IL-23 cells; format: cell-based; settings: IL-23 0.1 ng/mL, SEAP levels, read-out: IL23 reporter assay (IC50 nM)
Description: Biological Example 2. IL-23 Induced STAT3 QUANTI-Blue in HEK-Blue™ IL-23 Cells
HEK-Blue™ IL-23 cells were prepared at 2×10^5 cells/ml for adding 5000 cell/well and incubate plates containing compounds+cells for 1 hour at 37° C. Prepare IL-23 (treatment at final conc. 0.1 ng/mL) during incubation and add 2 ul per well of prepared cytokine in media to appropriate wells. The plate is incubated for overnight at 37° C. The next day, QUANTI-Blue solution is prepared. 18 ul of QUANTI-Blue solution per well is added into a new 384-well clear flat bottom plate, then add 2 ul of induced and treated HEK-Blue cell supernatant from overnight plate. Incubate the plate at 37° C. for 2 hours and determine SEAP levels.

[3] = HEK-Blue IL-23 cells, class symbols
[4] = HEK-Blue IL-23, HEK-Blue IL-23 cells, class symbols

T1 sequence (P29597 589-875 limits assumed): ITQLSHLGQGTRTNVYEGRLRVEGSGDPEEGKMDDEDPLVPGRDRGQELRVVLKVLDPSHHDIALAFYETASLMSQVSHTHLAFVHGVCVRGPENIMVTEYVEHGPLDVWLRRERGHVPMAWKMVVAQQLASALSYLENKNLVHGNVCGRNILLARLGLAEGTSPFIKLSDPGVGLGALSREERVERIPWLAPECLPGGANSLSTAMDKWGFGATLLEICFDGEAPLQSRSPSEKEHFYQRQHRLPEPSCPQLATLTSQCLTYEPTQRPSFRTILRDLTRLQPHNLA

## CNc1cc(Nc2cccn(-c3ccccn3)c2=O)nn2c(C(=O)NC3CCC4CCOC43)cnc12 (racemic) [Compound 10a, N-(hexahydro-2H-cyclopenta[b]furan-6-yl)-8-(methylamino)-6-((2-oxo-2H-[1,2′-bipyridin]-3-yl)amino)imidazo[1,2-b]pyridazine-3-carboxamide]
[1]
  IC50: 10 to 100 nM
[2]; [3]
  IC50: 10 to 100 nM

## CNc1cc(Nc2cccn(-c3ccccn3)c2=O)nn2c(C(=O)NC3CCC4CCOC43)cnc12 (racemic) [Compound 10b, N-(hexahydro-2H-cyclopenta[b]furan-6-yl)-8-(methylamino)-6-((2-oxo-2H-[1,2′-bipyridin]-3-yl)amino)imidazo[1,2-b]pyridazine-3-carboxamide]
[1]
  IC50: > 1000 nM
[2]; [3]
  IC50: ≥ 1000 nM

## CNc1cc(Nc2cccc3c2OCCC3)nn2c(C(=O)N[C@@H]3C[C@@H]4CCO[C@@H]43)cnc12 (racemic) [Compound 24]
[1]
  IC50: 10 to 100 nM
[2]; [4]
  IC50: 10 to 100 nM

## CNc1cc(Nc2cccc3c2OCCC3)nn2c(C(=O)N[C@@H]3C[C@H]4CCO[C@H]43)cnc12 (racemic) [Compound 25]
[1]
  IC50: < 10 nM
[2]; [4]
  IC50: < 10 nM

## CNc1cc(Nc2cccc3c2OCCC3)nc2c(C(=O)N[C@@H]3C[C@@H]4CCO[C@@H]43)cnn12 (racemic) [Compound 26]
[1]
  IC50: 10 to 100 nM
[2]; [4]
  IC50: 10 to 100 nM

## CNc1cc(Nc2cccc3c2OCCC3)nc2c(C(=O)N[C@@H]3C[C@H]4CCO[C@H]43)cnn12 (racemic) [Compound 27]
[1]
  IC50: < 10 nM
[2]; [4]
  IC50: < 10 nM

## CNc1cc(Nc2cccc(N3CCCC3=O)n2)nn2c(C(=O)NC(C)c3ncco3)cnc12 (racemic) [Compound 28]
[1]
  IC50: 10 to 100 nM
[2]; [4]
  IC50: < 10 nM

## CNc1cc(Nc2cccc(N3CCCC3=O)n2)nn2c(C(=O)NC3CCn4ccnc43)cnc12 (racemic) [Compound 29]
[1]
  IC50: < 10 nM
[2]; [4]
  IC50: < 10 nM

## [2H]C([2H])([2H])Nc1cc(Nc2cccc(N3CCCC3=O)n2)nn2c(C(=O)NC3C[C@@H]4CCOC34)cnc12 (mixture of isomers) [Compound 30]
[2]; [4]
  IC50: 10 to 100 nM

## [2H]C([2H])([2H])Nc1cc(Nc2cccc(N3CCCC3=O)n2)nn2c(C(=O)NC3C[C@H]4CCOC34)cnc12 (mixture of isomers) [Compound 31]
[1]
  IC50: < 10 nM
[2]; [4]
  IC50: < 10 nM

## CNc1cc(Nc2cccc(C)n2)nc2c(C(=O)NC3CCn4ccnc43)cnn12 (racemic) [Compound 32]
[1]
  IC50: 10 to 100 nM
[2]; [4]
  IC50: < 10 nM

## CNc1cc(Nc2cccc(C)n2)nc2c(C(=O)NC3CCn4ncnc43)cnn12 (racemic) [Compound 33]
[1]
  IC50: 10 to 100 nM
[2]; [4]
  IC50: < 10 nM

## CNc1cc(Nc2cccn(-c3ccccn3)c2=O)nn2c(C(=O)NC(C)c3ncco3)cnc12 (racemic) [Compound 34]
[1]
  IC50: 10 to 100 nM
[2]; [4]
  IC50: 10 to 100 nM

## [2H]C([2H])([2H])Nc1cc(Nc2cccn(-c3ccccn3)c2=O)nc2c(C(=O)NC(C)c3ncco3)cnn12 (racemic) [Compound 35]
[1]
  IC50: 10 to 100 nM
[2]; [4]
  IC50: 10 to 100 nM

## CNc1cc(Nc2cccn(-c3ccccn3)c2=O)nc2c(C(=O)NC3CCc4conc43)cnn12 (racemic) [Compound 37]
[1]
  IC50: 10 to 100 nM
[2]; [4]
  IC50: < 10 nM

## [2H]c1onc2c1CCC2NC(=O)c1cnn2c(NC)cc(Nc3cccn(-c4ccccn4)c3=O)nc12 (racemic) [Compound 38]
[1]
  IC50: 10 to 100 nM
[2]; [4]
  IC50: < 10 nM

## CNc1cc(Nc2cccn(-c3ccccn3)c2=O)nc2c(C(=O)N[C@@H]3C[C@H]4CCO[C@H]43)cnn12 (racemic) [Compound 43]
[1]
  IC50: 10 to 100 nM
[2]; [4]
  IC50: 10 to 100 nM

## CNc1cc(Nc2cccn(-c3ccccc3)c2=O)nn2c(C(=O)NC3CCn4ncnc43)cnc12 (racemic) [Compound 47]
[1]
  IC50: 10 to 100 nM
[2]; [4]
  IC50: < 10 nM

## CNc1cc(Nc2cccn(-c3ccn(C)n3)c2=O)nc2c(C(=O)NC(C)c3ncco3)cnn12 (racemic) [Compound 48]
[2]; [4]
  IC50: 10 to 100 nM

## CNc1cc(Nc2cccn(-c3ccn(C)n3)c2=O)nc2c(C(=O)NC3C[C@@H]4CCOC34)cnn12 (mixture of isomers) [Compound 50]
[2]; [4]
  IC50: 100 to 1000 nM

## CNc1cc(Nc2cccn(-c3ccn(C)n3)c2=O)nc2c(C(=O)N[C@@H]3C[C@H]4CCO[C@H]43)cnn12 (racemic) [Compound 51]
[1]
  IC50: 100 to 1000 nM
[2]; [4]
  IC50: 10 to 100 nM

## CNc1cc(Nc2cccn(-c3cc(C)on3)c2=O)nn2c(C(=O)NC3C[C@H]4CCOC34)cnc12 (mixture of isomers) [Compound 56]
[2]; [4]
  IC50: 10 to 100 nM

## CNc1cc(Nc2cccn([C@H]3C[C@H](F)C3)c2=O)nn2c(C(=O)NC3CCn4ncnc43)cnc12 (mixture of isomers) [Compound 91]
[1]
  IC50: 10 to 100 nM
[2]; [4]
  IC50: 10 to 100 nM

## CNc1cc(Nc2cccc3c2OCCC3)nn2c(C(=O)NC(C)c3ncco3)cnc12 (single isomer, unassigned) [Compound 22a]
[1]
  IC50: > 1000 nM
[2]; [3]
  IC50: ≥ 1000 nM

## CNc1cc(Nc2cccn(-c3ccccn3)c2=O)nc2c(C(=O)NC(C)c3ncco3)cnn12 (single isomer, unassigned) [Compound 36a]
[2]; [3]
  IC50: ≥ 1000 nM

## CNc1cc(Nc2cccn(C3CC(C)(OC)C3)c2=O)nn2c(C(=O)N[C@@H]3C[C@H]4CCO[C@H]43)cnc12 (single isomer, unassigned) [Compound 92b]
[2]; [3]
  IC50: 10 to 100 nM

## [2H]C([2H])([2H])NC(=O)c1nnc(NC(=O)C2CC2)cc1Nc1cccc(-c2ncn(C)n2)c1OC [BMS-986165, reference compound]
[2]; HEK-Blue IL-23 cells, numeric value (control)
  IC50: 5.93 nM

## CNc1cc(Nc2cccn(-c3ccccn3)c2=O)nn2c(C(=O)N[C@@H]3C[C@H]4CCO[C@H]43)cnc12 [Compound 2, N-((1R,5S,7R)-2-oxabicyclo[3.2.0]heptan-7-yl)-8-(methylamino)-6-((2-oxo-2H-[1,2′-bipyridin]-3-yl)amino)imidazo[1,2-b]pyridazine-3-carboxamide]
[2]; [4]
  IC50: 10 to 100 nM

## CNc1cc(Nc2cccn(-c3ccn(C)n3)c2=O)nn2c(C(=O)N[C@@H]3C[C@H]4CCO[C@H]43)cnc12 [Compound 3a, N-((1R,5S,7R)-2-oxabicyclo[3.2.0]heptan-7-yl)-6-((1-(1-methyl-1H-pyrazol-3-yl)-2-oxo-1,2-dihydropyridin-3-yl)amino)-8-(methylamino)imidazo[1,2-b]pyridazine-3-carboxamide]
[2]; [4]
  IC50: < 10 nM

## CNc1cc(Nc2cccn(-c3ccn(C)n3)c2=O)nn2c(C(=O)N[C@H]3C[C@@H]4CCO[C@@H]43)cnc12 [Compound 3b, N-((1S,5R,7S)-2-oxabicyclo[3.2.0]heptan-7-yl)-6-((1-(1-methyl-1H-pyrazol-3-yl)-2-oxo-1,2-dihydropyridin-3-yl)amino)-8-(methylamino)imidazo[1,2-b]pyridazine-3-carboxamide]
[2]; [4]
  IC50: 100 to 1000 nM

## [2H]C([2H])([2H])Nc1cc(Nc2cccn(-c3ccccn3)c2=O)nn2c(C(=O)N[C@@H]3C[C@H]4CCO[C@H]43)cnc12 [Compound 4a, N-((1R,5S,7R)-2-oxabicyclo[3.2.0]heptan-7-yl)-8-((methyl-d3)amino)-6-((2-oxo-2H-[1,2′-bipyridin]-3-yl)amino)imidazo[1,2-b]pyridazine-3-carboxamide]
[2]; [4]
  IC50: 10 to 100 nM

## [2H]C([2H])([2H])Nc1cc(Nc2cccn(-c3ccccn3)c2=O)nn2c(C(=O)N[C@H]3C[C@@H]4CCO[C@@H]43)cnc12 [Compound 4b, N-((1S,5R,7S)-2-oxabicyclo[3.2.0]heptan-7-yl)-8-((methyl-d3)amino)-6-((2-oxo-2H-[1,2′-bipyridin]-3-yl)amino)imidazo[1,2-b]pyridazine-3-carboxamide]
[2]; [4]
  IC50: ≥ 1000 nM

## [2H]C([2H])([2H])Nc1cc(Nc2cccn([C@H]3CC[C@H](OC([2H])([2H])[2H])CC3)c2=O)nn2c(C(=O)N[C@@H]3C[C@H]4CCO[C@H]43)cnc12 [Compound 11, N-((1R,5S,7R)-2-oxabicyclo[3.2.0]heptan-7-yl)-6-((1-((1r,4R)-4-(methoxy-d3)cyclohexyl)-2-oxo-1,2-dihydropyridin-3-yl)amino)-8-((methyl-d3)amino)imidazo[1,2-b]pyridazine-3-carboxamide]
[1]
  IC50: < 10 nM

## [2H]C([2H])([2H])Nc1cc(Nc2cccn(-c3ccccn3)c2=O)nn2c(C(=O)N[C@@H]3C[C@@H]3F)cnc12 [Compound 39]
[2]; [3]
  IC50: < 10 nM

## CNc1cc(Nc2cccn(-c3nn(C)cc3F)c2=O)nn2c(C(=O)N[C@@H]3C[C@@H]3F)cnc12 [Compound 60]
[2]; [4]
  IC50: 10 to 100 nM

## [2H]C([2H])([2H])Nc1cc(Nc2cccn(C3CCC4(CC3)COC4)c2=O)nc2c(C(=O)N[C@@H]3C[C@H]4CCO[C@H]43)cnn12 [Compound 67]
[2]; [4]
  IC50: 10 to 100 nM

## [2H]C([2H])([2H])Nc1cc(Nc2cccn([C@H]3CC[C@@H](OC)CC3)c2=O)nn2c(C(=O)N[C@@H]3C[C@@H]3F)cnc12 [Compound 71]
[2]; [4]
  IC50: 10 to 100 nM

## [2H]C([2H])([2H])Nc1cc(Nc2cccn(C3CCC4(CC3)COC4)c2=O)nc2c(C(=O)N[C@@H]3C[C@@H]3F)cnn12 [Compound 74]
[2]; [4]
  IC50: 10 to 100 nM

## [2H]C([2H])([2H])Nc1cc(Nc2cccn(C3C[C@H]4CC[C@@H](C3)O4)c2=O)nc2c(C(=O)N[C@@H]3C[C@H]4CCO[C@H]43)cnn12 (stereo partly drawn) [Compound 77]
[2]; [4]
  IC50: 10 to 100 nM

## [2H]C([2H])([2H])Nc1cc(Nc2cccn(C3C[C@H]4CC[C@@H](C3)O4)c2=O)nn2c(C(=O)N[C@@H]3C[C@H]4CCO[C@H]43)cnc12 (stereo partly drawn) [Compound 78]
[2]; [4]
  IC50: 10 to 100 nM
